Read-outs that look alike come from different tables or passages of the source.

The series has as its system participants with migraine. The conditions noted are these: human, in vivo.

From the text: Difference between groups in participant withdrawals from treatment • 2.

As to `CC(C)NCC(O)COc1cccc2ccccc12` (centres unmarked) [Propranolol, propranolol], for the setting “4 week”, the “Discontinuing the study (n/N)” value was 0/10 and the “Discontinuing the study (percent)” value is “(0.0%)”. Where the note is “8 week”, the “Discontinuing the study (n/N)” value is 0/10 and the “Discontinuing the study (percent)” value is reported as “(0.0%)”. Moreover, for the setting “12 week”, the “Discontinuing the study (n/N)” value is given as 0/10 and the “Discontinuing the study (percent)” value is given as “(0.0%)”. For the same compound, where the note is “16 week”, the “Deceased (n/N)” value was 0/10 and the “Deceased (percent)” value is listed as “(0.0%)”.

Values taken from US12661345B2, “Compositions for the treatment of hypertension” (The George Institute for Global Health, priority 2017, dated 2026).
